Read-outs that look alike come from different tables or passages of the source. *1 amine or outer side, *2 acyl side, *3 side chain or, on linkers, in order; H or OH if unused. Where a SMILES comes first, the peptide text is derived from it. The star is where a group is joined. X1 = COc1ccc(C2=CN(C(=O)c3cc(OC)c(OC)cc3N)[C@H](C3OCCN3C(=O)OCCS*)C2)cc1; X2 = COc1cc(N)c(C(=O)N2c3ccccc3C[C@H]2C2OCCN2C(=O)OCc2ccc(S*)cc2)cc1OC; Pteroyl = Nc1nc2ncc(CNc3ccc(C(=O)*)cc3)nc2c(=O)[nH]1; γGlu = O=C(O)[C@H](CCC(=O)[*:2])N[*:1]
Key:
[1] = system: KB cells; experiment: cells; format: cell-based, Human
Procedure: METHOD. Inhibition of Cellular DNA Synthesis. The conjugates described herein were evaluated using an in vitro cytotoxicity assay that predicted the ability of the drug to inhibit the growth of the corresponding targeted cells, such as, but not limited to the following
It is to be understood that the choice of cell type can be made on the basis of the susceptibility of those selected cells to the drug that forms the conjugate, and the relative expression of the cell surface receptor or target antigen. The test conjugates were conjugates of a cell surface receptor or target antigen binding compound and PBD prodrugs, poly-PBD prodrugs, and mixed PBDs, as described herein. The test cells were exposed to varying concentrations of the conjugates, and optionally also in the absence or presence of at least a 100-fold excess of the unconjugated cell surface receptor or target antigen binding compound for competition studies to assess activity as being specific to the cell surface receptor or target antigen.
EXAMPLE. Conjugates of PBD prodrugs, poly-PBD prodrugs, and mixed PBDs described herein were active against KB cells. The activity was mediated by the folate receptor as indicated by competition experiments using co-administered folic acid. KB cells were exposed for up to 7 h at 37° C. to the indicated concentrations of folate-drug conjugate in the absence or presence of at least a 100-fold excess of folic acid. The cells were then rinsed once with fresh culture medium and incubated in fresh culture medium for 72 hours at 37° C. Cell viability was assessed using a ^3H-thymidine incorporation assay. For conjugates described herein, dose-dependent cytotoxicity was generally measurable, and in most cases, the IC50 values (concentration of drug conjugate required to reduce ^3H-thymidine incorporation into newly synthesized DNA by 50%) were in the low nanomolar range.

[2] = Toxicity as measured by weight loss (test animal total body weight); format: in vivo, mice; settings: KB tumor study
Procedure: METHOD. Toxicity as Measured by Weight Loss. The percentage weight change of the test animals was determined on selected days post-tumor inoculation (PTI), and during dosing. The results were graphed.

[3] = Homo sapiens, KB cells, 3H-thymidine incorporation, read-out: IC50 KB Cells
[4] = Homo sapiens, KB cells, co-administered with dithiothreitol (DTT), read-out: IC50 KB Cells

SMILES | IC50 ([1]; 3 h) [nM] | further results
COc1cc(N)c(C(=O)N2c3ccccc3C[C@H]2C2OCCN2C(=O)OCc2ccc(SSC[C@H](NC(=O)[C@H](CC(=O)O)NC(=O)[C@H](CC(=O)O)NC(=O)[C@H](CCCNC(=N)N)NC(=O)[C@H](CC(=O)O)NC(=O)CC[C@H](NC(=O)c3ccc(NCc4cnc5nc(N)[nH]c(=O)c5n4)cc3)C(=O)O)C(=O)O)cc2)cc1OC (stereo partly shown) [EC1673] ({Pteroyl-γGlu}-DRDDC(X2)-OH) | – | IC50 [1]: ≥ 1000 nM
C=C1C[C@@H](C2OCCN2C(=O)OCc2ccc(NC(=O)[C@H](C)NC(=O)[C@@H](NC(=O)CCCCCN3C(=O)CC(SC[C@@H](NC(=O)[C@H](CCC(=O)NC[C@H](O)[C@@H](O)[C@H](O)[C@H](O)CO)NC(=O)[C@@H](CCC(=O)O)NC(=O)[C@H](CCC(=O)NC[C@H](O)[C@@H](O)[C@H](O)[C@H](O)CO)NC(=O)[C@@H](CCC(=O)O)NC(=O)[C@H](CCC(=O)NC[C@H](O)[C@@H](O)[C@H](O)[C@H](O)CO)NC(=O)CC[C@H](NC(=O)c4ccc(NCc5cnc6nc(N)[nH]c(=O)c6n5)cc4)C(=O)O)C(=O)O)C3=O)C(C)C)cc2)N(C(=O)c2cc(OC)c(OCCCCCOc3cc(N)c(C(=O)N4CC(=C)C[C@H]4C4OCCN4C(=O)OCC4c5ccccc5-c5ccccc54)cc3OC)cc2N)C1 (stereo partly shown) [EC1911] | 0.7 | –
C=C1C[C@@H](C2OCCN2C(=O)OCc2ccc(NC(=O)[C@H](C)NC(=O)[C@@H](NC(=O)CCOCCOCCOCCOCCNC(=O)CCN3C(=O)CC(SC[C@@H](NC(=O)[C@H](CCC(=O)NC[C@H](O)[C@@H](O)[C@H](O)[C@H](O)CO)NC(=O)[C@@H](CCC(=O)O)NC(=O)[C@H](CCC(=O)NC[C@H](O)[C@@H](O)[C@H](O)[C@H](O)CO)NC(=O)[C@@H](CCC(=O)O)NC(=O)[C@H](CCC(=O)NC[C@H](O)[C@@H](O)[C@H](O)[C@H](O)CO)NC(=O)CC[C@H](NC(=O)c4ccc(NCc5cnc6nc(N)[nH]c(=O)c6n5)cc4)C(=O)O)C(=O)O)C3=O)C(C)C)cc2)N(C(=O)c2cc(OC)c(OCCCCCOc3cc(N)c(C(=O)N4CC(=C)C[C@H]4C4OCCN4C(=O)OCc4ccc([N+](=O)[O-])cc4)cc3OC)cc2N)C1 (stereo partly shown) [EC2127] | 1.34 | –
C=C1C[C@@H](C2OCCN2C(=O)OCc2ccc(NC(=O)[C@H](C)NC(=O)[C@@H](NC(=O)CCOCCOCCOCCOCCNC(=O)CCN3C(=O)CC(SC[C@@H](NC(=O)[C@H](CCC(=O)NC[C@H](O)[C@@H](O)[C@H](O)[C@H](O)CO)NC(=O)[C@@H](CCC(=O)O)NC(=O)[C@H](CCC(=O)NC[C@H](O)[C@@H](O)[C@H](O)[C@H](O)CO)NC(=O)[C@@H](CCC(=O)O)NC(=O)[C@H](CCC(=O)NC[C@H](O)[C@@H](O)[C@H](O)[C@H](O)CO)NC(=O)CC[C@H](NC(=O)c4ccc(NCc5cnc6nc(N)[nH]c(=O)c6n5)cc4)C(=O)O)C(=O)O)C3=O)C(C)C)cc2)N(C(=O)c2cc(OC)c(OCCCCCOc3ccc(-c4nc5ccc(-c6nc7cc(N8CCN(C)CC8)ccc7[nH]6)cc5[nH]4)cc3)cc2N)C1 (stereo partly shown) [EC2080] | 0.2 | –
C=C1C[C@H]2C(=O)Nc3cc(OCCCCCOc4cc(N)c(C(=O)N5CC(=C)C[C@H]5C5OCCN5C(=O)OCCCSC[C@H](NC(=O)[C@H](CC(=O)O)NC(=O)[C@H](CC(=O)O)NC(=O)[C@H](CCCNC(=N)N)NC(=O)[C@H](CC(=O)O)NC(=O)CC[C@H](NC(=O)c5ccc(NCc6cnc7nc(N)[nH]c(=O)c7n6)cc5)C(=O)O)C(=O)O)cc4OC)c(OC)cc3C(=O)N2C1 (stereo partly shown) [EC1772] | 0.33 | –
C=C1C[C@@H](C2OCCN2C(=O)OCc2ccc(SSC[C@H](NC(=O)[C@H](CC(=O)O)NC(=O)[C@H](CC(=O)O)NC(=O)[C@H](CCCNC(=N)N)NC(=O)[C@H](CC(=O)O)NC(=O)CC[C@H](NC(=O)c3ccc(NCc4cnc5nc(N)[nH]c(=O)c5n4)cc3)C(=O)O)C(=O)O)cc2)N(C(=O)c2cc(OC)c(OCCCCCOc3cc(N)c(C(=O)N4CC(=C)C[C@H]4C4OCCN4C(=O)OCc4ccc(SSC[C@H](NC(=O)[C@H](CC(=O)O)NC(=O)[C@H](CC(=O)O)NC(=O)[C@H](CCCNC(=N)N)NC(=O)[C@H](CC(=O)O)NC(=O)CC[C@H](NC(=O)c5ccc(NCc6cnc7nc(N)[nH]c(=O)c7n6)cc5)C(=O)O)C(=O)O)cc4)cc3OC)cc2N)C1 (stereo partly shown) [EC1704] | 0.46 | –
C=C1C[C@@H](C2OCCN2C(=O)OCCSSC[C@@H](NC(=O)[C@H](CCC(=O)NC[C@H](O)[C@@H](O)[C@H](O)[C@H](O)CO)NC(=O)[C@@H](CCC(=O)O)NC(=O)[C@H](CCC(=O)NC[C@H](O)[C@@H](O)[C@H](O)[C@H](O)CO)NC(=O)[C@@H](CCC(=O)O)NC(=O)[C@H](CCC(=O)NC[C@H](O)[C@@H](O)[C@H](O)[C@H](O)CO)NC(=O)CC[C@H](NC(=O)c2ccc(NCc3cnc4nc(N)[nH]c(=O)c4n3)cc2)C(=O)O)C(=O)O)N(C(=O)c2cc(OC)c(OCCCCCOc3cc(N)c(C(=O)N4CC(=C)C[C@H]4C4OCCN4C(=O)OCCSSc4ccccn4)cc3OC)cc2N)C1 (stereo partly shown) [EC1949] | 1.49 | –
COc1ccc(C2=CN(C(=O)c3cc(OC)c(OC)cc3N)[C@H](C3OCCN3C(=O)OCCSSc3ccccn3)C2)cc1 (stereo partly shown) [EC1628] | – | IC50 [1, 3]: 383 nM; IC50 [1, 4]: 11 nM
C=C1C[C@@H](C2OCCN2C(=O)OCCSSC[C@@H](NC(=O)[C@H](CCC(=O)NC[C@H](O)[C@@H](O)[C@H](O)[C@H](O)CO)NC(=O)[C@@H](CCC(=O)O)NC(=O)[C@H](CCC(=O)NC[C@H](O)[C@@H](O)[C@H](O)[C@H](O)CO)NC(=O)[C@@H](CCC(=O)O)NC(=O)[C@H](CCC(=O)NC[C@H](O)[C@@H](O)[C@H](O)[C@H](O)CO)NC(=O)CC[C@H](NC(=O)c2ccc(NCc3cnc4nc(N)[nH]c(=O)c4n3)cc2)C(=O)O)C(=O)O)N(C(=O)c2cc(OC)c(OCCCCCOc3ccc(-c4nc5ccc(-c6nc7cc(N8CCN(C)CC8)ccc7[nH]6)cc5[nH]4)cc3)cc2N)C1 (stereo partly shown) [EC1879] | 0.56 | toxicity as evidenced by test animal total body weight ([2]; 2 μmol/kg TIW for 1 week): Minor toxicity was observed; toxicity as evidenced by test animal total body weight ([2]; 2 μmol/kg TIW for two weeks): Toxicity was not observed
C=C1C[C@@H](C2OCCN2C(=O)OCCSSc2ccccn2)N(C(=O)c2cc(OC)c(OCCCCCOc3cc(N)c(C(=O)N4CC(=C)C[C@H]4C4OCCN4C(=O)OCCSSc4ccccn4)cc3OC)cc2N)C1 (stereo partly shown) [EC1695] | – | IC50 [1, 3]: ≥ 100 nM; IC50 [1, 4]: 1 nM
COc1ccc(C2=CN(C(=O)c3cc(OC)c(OC)cc3N)[C@H](C3OCCN3C(=O)OCCSSC[C@H](NC(=O)[C@H](CC(=O)O)NC(=O)[C@H](CC(=O)O)NC(=O)[C@H](CCCNC(=N)N)NC(=O)[C@H](CC(=O)O)NC(=O)CC[C@H](NC(=O)c3ccc(NCc4cnc5nc(N)[nH]c(=O)c5n4)cc3)C(=O)O)C(=O)O)C2)cc1 (stereo partly shown) [EC1629] ({Pteroyl-γGlu}-DRDDC(X1)-OH) | – | toxicity as evidenced by test animal total body weight ([2]; 2 μmol/kg TIW for two weeks): Toxicity was not observed
C=C1C[C@@H](C2OCCN2C(=O)OCCSSC[C@@H](NC(=O)[C@H](CCC(=O)NC[C@H](O)[C@@H](O)[C@H](O)[C@H](O)CO)NC(=O)[C@@H](CCC(=O)O)NC(=O)[C@H](CCC(=O)NC[C@H](O)[C@@H](O)[C@H](O)[C@H](O)CO)NC(=O)[C@@H](CCC(=O)O)NC(=O)[C@H](CCC(=O)NC[C@H](O)[C@@H](O)[C@H](O)[C@H](O)CO)NC(=O)CC[C@H](NC(=O)c2ccc(NCc3cnc4nc(N)[nH]c(=O)c4n3)cc2)C(=O)O)C(=O)O)N(C(=O)c2cc(OC)c(OCCCCCOc3cc(N)c(C(=O)N4CC(=C)C[C@H]4C4OCCN4C(=O)OCC4c5ccccc5-c5ccccc54)cc3OC)cc2N)C1 (stereo partly shown) [EC1884] | 0.36 | toxicity as evidenced by test animal total body weight ([2]; 2 μmol/kg TIW for two weeks): Toxicity was not observed
C=C1C[C@@H](C2OCCN2C(=O)OCC2c3ccccc3-c3ccccc32)N(C(=O)c2cc(OC)c(OCCCCCOc3cc(NC(=O)OCc4ccc(NC(=O)[C@H](C)NC(=O)[C@@H](NC(=O)CCOCCOCCOCCOCCNC(=O)CCN5C(=O)CC(SC[C@@H](NC(=O)[C@H](CCC(=O)NC[C@H](O)[C@@H](O)[C@H](O)[C@H](O)CO)NC(=O)[C@@H](CCC(=O)O)NC(=O)[C@H](CCC(=O)NC[C@H](O)[C@@H](O)[C@H](O)[C@H](O)CO)NC(=O)[C@@H](CCC(=O)O)NC(=O)[C@H](CCC(=O)NC[C@H](O)[C@@H](O)[C@H](O)[C@H](O)CO)NC(=O)CC[C@H](NC(=O)c6ccc(NCc7cnc8nc(N)[nH]c(=O)c8n7)cc6)C(=O)O)C(=O)O)C5=O)C(C)C)cc4)c(C(=O)N4CC(=C)C[C@H]4C4OCCN4C(=O)OCC4c5ccccc5-c5ccccc54)cc3OC)cc2N)C1 (stereo partly shown) [EC2103] | 3.5 | –
C=C1C[C@H]2C(=O)Nc3cc(OCCCCCOc4cc(N)c(C(=O)N5CC(=C)C[C@H]5C5OCCN5C(=O)OCc5ccc(NC(=O)[C@H](C)NC(=O)[C@@H](NC(=O)CCOCCOCCOCCOCCNC(=O)CCN6C(=O)CC(SC[C@@H](NC(=O)[C@H](CCC(=O)NC[C@H](O)[C@@H](O)[C@H](O)[C@H](O)CO)NC(=O)[C@@H](CCC(=O)O)NC(=O)[C@H](CCC(=O)NC[C@H](O)[C@@H](O)[C@H](O)[C@H](O)CO)NC(=O)[C@@H](CCC(=O)O)NC(=O)[C@H](CCC(=O)NC[C@H](O)[C@@H](O)[C@H](O)[C@H](O)CO)NC(=O)CC[C@H](NC(=O)c7ccc(NCc8cnc9nc(N)[nH]c(=O)c9n8)cc7)C(=O)O)C(=O)O)C6=O)C(C)C)cc5)cc4OC)c(OC)cc3C(=O)N2C1 (stereo partly shown) [EC2074] | 3.6 | –

— patent US10624972B2, “Conjugates for treating diseases” (priority 2015, dated 2020)
